From patent US10023570B2 (Array BioPharma, Inc., priority 2015, dated 2018)
Where a name gives a salt, the structure may show the parent alone.

These molecules were tested against human KDR protein in HEK-293 cells (Homo sapiens (Human), UniProt P35968) (assay: KDR Cell Assay (phospho-KDR in HEK-293 cells expressing inducible KDR)). Conditions: pKDR Cell HEK 10% FBS IC50, HEK-293 cells expressing inducible KDR, VEGF stimulated, 10% FBS.
Type: cell-based
Description: The cellular potency of a compound inhibiting KDR kinase was determined in HEK-293 cells expressing an inducible human KDR protein. […] The cells were incubated for 1 hour with test compound in DMEM at a final DMSO concentration of 0.25%. […] The media was aspirated and 35 μL of a 1× lysis buffer was added. […] The lysate was stored at −80° C. until ready for assay. Phospho-KDR was measured using a phospho-KDR kit (Catalog #K151BOC) purchased from Meso Scale Diagnostics (Rockville, Md.) according to the manufacturer's instructions. All values are expressed as percent of percent of control (POC). The POC values were fitted to a 4 parameter logistic curve fit and the IC50 value is point where the curve crosses 50 POC.

human KDR protein in HEK-293 cells, sequence (P35968 20-1356): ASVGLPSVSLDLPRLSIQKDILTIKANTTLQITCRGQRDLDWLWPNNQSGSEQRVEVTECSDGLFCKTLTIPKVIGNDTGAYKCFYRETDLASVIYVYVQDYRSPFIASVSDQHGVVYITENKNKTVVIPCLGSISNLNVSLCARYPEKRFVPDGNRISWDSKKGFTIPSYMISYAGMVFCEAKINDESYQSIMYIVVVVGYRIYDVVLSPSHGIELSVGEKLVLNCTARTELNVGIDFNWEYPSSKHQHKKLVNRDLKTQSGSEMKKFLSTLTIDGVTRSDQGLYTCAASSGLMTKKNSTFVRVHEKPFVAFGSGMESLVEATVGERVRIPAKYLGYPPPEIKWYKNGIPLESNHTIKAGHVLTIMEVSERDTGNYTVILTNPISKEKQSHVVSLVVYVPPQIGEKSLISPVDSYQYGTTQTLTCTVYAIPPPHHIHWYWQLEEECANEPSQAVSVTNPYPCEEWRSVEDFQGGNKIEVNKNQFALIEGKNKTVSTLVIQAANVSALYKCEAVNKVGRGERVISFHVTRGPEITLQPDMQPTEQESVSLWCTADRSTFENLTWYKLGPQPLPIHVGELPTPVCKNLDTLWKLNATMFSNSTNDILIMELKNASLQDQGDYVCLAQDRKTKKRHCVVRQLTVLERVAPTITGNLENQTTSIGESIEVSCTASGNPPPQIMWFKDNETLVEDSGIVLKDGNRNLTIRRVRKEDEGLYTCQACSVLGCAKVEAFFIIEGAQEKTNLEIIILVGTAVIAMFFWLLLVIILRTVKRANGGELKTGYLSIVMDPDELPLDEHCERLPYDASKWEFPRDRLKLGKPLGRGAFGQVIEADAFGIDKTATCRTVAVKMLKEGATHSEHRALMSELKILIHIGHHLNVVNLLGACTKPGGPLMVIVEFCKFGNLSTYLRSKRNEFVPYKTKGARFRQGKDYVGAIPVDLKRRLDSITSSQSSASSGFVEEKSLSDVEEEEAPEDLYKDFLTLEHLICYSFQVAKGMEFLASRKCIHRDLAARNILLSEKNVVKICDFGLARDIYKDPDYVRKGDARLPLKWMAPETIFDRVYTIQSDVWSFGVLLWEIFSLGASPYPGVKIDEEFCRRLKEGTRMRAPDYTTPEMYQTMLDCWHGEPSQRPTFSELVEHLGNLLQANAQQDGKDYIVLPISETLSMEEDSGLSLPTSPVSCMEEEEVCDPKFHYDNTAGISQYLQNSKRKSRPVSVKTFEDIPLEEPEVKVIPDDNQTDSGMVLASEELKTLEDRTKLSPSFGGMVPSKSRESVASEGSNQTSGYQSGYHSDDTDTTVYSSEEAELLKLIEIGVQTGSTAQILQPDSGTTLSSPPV

Structure (SMILES)	IC50 [µM]
Cn1cc(-c2cc(-c3ccc(N4CCN(C(=O)[C@H]5CC[C@@H](O)C5)CC4)nc3)c3c(C#N)cnn3c2)cn1 [Example 12, 4-(6-(4-((1S,3R)-3-hydroxycyclopentane-1-carbonyl)piperazin-1-yl)pyridin-3-yl)-6-(1-methyl-1H-pyrazol-4-yl)pyrazolo[1,5-a]pyridine-3-carbonitrile]	1.19
C[C@@H](C(=O)N1CCN(c2ccc(-c3cc(-c4cnn(C)c4)cn4ncc(C#N)c34)cn2)CC1)c1ccccc1 [Example 14, (R)-6-(1-methyl-1H-pyrazol-4-yl)-4-(6-(4-(2-phenylpropanoyl)piperazin-1-yl)pyridin-3-yl)pyrazolo[1,5-a]pyridine-3-carbonitrile]	1.78
Cn1cc(-c2cc(-c3ccc(N4CCN(C(=O)C[C@H](N)c5ccccc5)CC4)nc3)c3c(C#N)cnn3c2)cn1 [Example 23, (S)-4-(6-(4-(3-amino-3-phenylpropanoyl)piperazin-1-yl)pyridin-3-yl)-6-(1-methyl-1H-pyrazol-4-yl)pyrazolo[1,5-a]pyridine-3-carbonitrile dihydrochloride]	0.0454
Cn1cc(-c2cc(-c3ccc(N4CCN(C(=O)C5(c6ccccc6)CCC5)CC4)nc3)c3c(C#N)cnn3c2)cn1 [Example 27, 6-(1-methyl-1H-pyrazol-4-yl)-4-(6-(4-(1-phenylcyclobutane-1-carbonyl)piperazin-1-yl)pyridin-3-yl)pyrazolo[1,5-a]pyridine-3-carbonitrile]	0.651
CC(C)C(C(=O)N1CCN(c2ccc(-c3cc(-c4cnn(C)c4)cn4ncc(C#N)c34)cn2)CC1)c1ccccc1 (stereo not drawn) [Example 29, 6-(1-methyl-1H-pyrazol-4-yl)-4-(6-(4-(3-methyl-2-phenylbutanoyl)piperazin-1-yl)pyridin-3-yl)pyrazolo[1,5-a]pyridine-3-carbonitrile]	0.607
Cn1cc(C(=O)N2CCN(c3ccc(-c4cc(-c5cnn(C)c5)cn5ncc(C#N)c45)cn3)CC2)cn1 [Example 35, 6-(1-methyl-1H-pyrazol-4-yl)-4-(6-(4-(1-methyl-1H-pyrazole-4-carbonyl)piperazin-1-yl)pyridin-3-yl)pyrazolo[1,5-a]pyridine-3-carbonitrile 2,2,2-trifluoroacetate]	0.437
Cn1cnc(C(=O)N2CCN(c3ccc(-c4cc(-c5cnn(C)c5)cn5ncc(C#N)c45)cn3)CC2)c1 [Example 36, 4-(6-(4-(1-methyl-1H-imidazole-4-carbonyl)piperazin-1-yl)pyridin-3-yl)-6-(1-methyl-1H-pyrazol-4-yl)pyrazolo[1,5-a]pyridine-3-carbonitrile bis(2,2,2-trifluoroacetate)]	0.212
Cc1cc(C(=O)N2CCN(c3ccc(-c4cc(-c5cnn(C)c5)cn5ncc(C#N)c45)cn3)CC2)no1 [Example 37, 6-(1-methyl-1H-pyrazol-4-yl)-4-(6-(4-(5-methylisoxazole-3-carbonyl)piperazin-1-yl)pyridin-3-yl)pyrazolo[1,5-a]pyridine-3-carbonitrile 2,2,2-trifluoroacetate]	0.0912
Cn1cc(-c2cc(-c3ccc(N4CCN(C(=O)c5cnccn5)CC4)nc3)c3c(C#N)cnn3c2)cn1 [Example 38, 6-(1-methyl-1H-pyrazol-4-yl)-4-(6-(4-(pyrazine-2-carbonyl)piperazin-1-yl)pyridin-3-yl)pyrazolo[1,5-a]pyridine-3-carbonitrile 2,2,2-trifluoroacetate]	0.396
Cn1cc(-c2cc(-c3ccc(N4CCN(C(=O)Cc5c(F)cccc5F)CC4)nc3)c3c(C#N)cnn3c2)cn1 [Example 39, 4-(6-(4-(2-(2,6-difluorophenyl)acetyl)piperazin-1-yl)pyridin-3-yl)-6-(1-methyl-1H-pyrazol-4-yl)pyrazolo[1,5-a]pyridine-3-carbonitrile 2,2,2-trifluoroacetate]	0.0839
Cc1nn(C)cc1C(=O)N1CCN(c2ccc(-c3cc(-c4cnn(C)c4)cn4ncc(C#N)c34)cn2)CC1 [Example 41, 4-(6-(4-(1,3-dimethyl-1H-pyrazole-4-carbonyl)piperazin-1-yl)pyridin-3-yl)-6-(1-methyl-1H-pyrazol-4-yl)pyrazolo[1,5-a]pyridine-3-carbonitrile 2,2,2-trifluoroacetate]	0.871

The remaining molecules from weak to strong by IC50, led by results:

IC50 [µM]	Structure (SMILES)
1.65	Cn1cc(-c2cc(-c3ccc(N4CCN(C(=O)Cc5ccnn5C)CC4)nc3)c3c(C#N)cnn3c2)cn1 [Example 20, 6-(1-methyl-1H-pyrazol-4-yl)-4-(6-(4-(2-(1-methyl-1H-pyrazol-5-yl)acetyl)piperazin-1-yl)pyridin-3-yl)pyrazolo[1,5-a]pyridine-3-carbonitrile]
0.96	Cn1cc(-c2cc(-c3ccc(N4CCN(C(=O)C5(c6ccccc6)CCCC5)CC4)nc3)c3c(C#N)cnn3c2)cn1 [Example 24, 6-(1-methyl-1H-pyrazol-4-yl)-4-(6-(4-(1-phenylcyclopentanecarbonyl)piperazin-1-yl)pyridin-3-yl)pyrazolo[1,5-a]pyridine-3-carbonitrile]
0.643	C[C@H](C(=O)N1CCN(c2ccc(-c3cc(-c4cnn(C)c4)cn4ncc(C#N)c34)cn2)CC1)c1ccccc1 [Example 15, (S)-6-(1-methyl-1H-pyrazol-4-yl)-4-(6-(4-(2-phenylpropanoyl)piperazin-1-yl)pyridin-3-yl)pyrazolo[1,5-a]pyridine-3-carbonitrile]
0.546	Cc1ccc(CC(=O)N2CCN(c3ccc(-c4cc(-c5cnn(C)c5)cn5ncc(C#N)c45)cn3)CC2)cn1 [Example 19, 6-(1-methyl-1H-pyrazol-4-yl)-4-(6-(4-(2-(6-methylpyridin-3-yl)acetyl)piperazin-1-yl)pyridin-3-yl)pyrazolo[1,5-a]pyridine-3-carbonitrile]
0.54	Cn1cc(-c2cc(-c3ccc(N4CCN(C(=O)C5CCCC5)CC4)nc3)c3c(C#N)cnn3c2)cn1 [Example 21, 4-(6-(4-(cyclopentanecarbonyl)piperazin-1-yl)pyridin-3-yl)-6-(1-methyl-1H-pyrazol-4-yl)pyrazolo[1,5-a]pyridine-3-carbonitrile]
0.476	Cn1cc(-c2cc(-c3ccc(N4CCN(C(=O)C(C)(C)c5ccccc5)CC4)nc3)c3c(C#N)cnn3c2)cn1 [Example 26, 6-(1-methyl-1H-pyrazol-4-yl)-4-(6-(4-(2-methyl-2-phenylpropanoyl)piperazin-1-yl)pyridin-3-yl)pyrazolo[1,5-a]pyridine-3-carbonitrile]
0.435	Cn1cc(-c2cc(-c3ccc(N4CCN(C(=O)C(CO)c5ccccc5)CC4)nc3)c3c(C#N)cnn3c2)cn1 (stereo not drawn) [Example 16, 4-(6-(4-(3-hydroxy-2-phenylpropanoyl)piperazin-1-yl)pyridin-3-yl)-6-(1-methyl-1H-pyrazol-4-yl)pyrazolo[1,5-a]pyridine-3-carbonitrile]
0.328	Cn1cc(-c2cc(-c3ccc(N4CCN(C(=O)[C@@H](O)Cc5ccccc5)CC4)nc3)c3c(C#N)cnn3c2)cn1 [Example 4]
0.27	Cn1cc(-c2cc(-c3ccc(N4CCN(C(=O)C5(c6ccccc6)CC5)CC4)nc3)c3c(C#N)cnn3c2)cn1 [Example 25, 6-(1-methyl-1H-pyrazol-4-yl)-4-(6-(4-(1-phenylcyclopropane-1-carbonyl)piperazin-1-yl)pyridin-3-yl)pyrazolo[1,5-a]pyridine-3-carbonitrile]
0.243	Cn1cc(-c2cc(-c3ccc(N4CCN(C(=O)Cc5ccccn5)CC4)nc3)c3c(C#N)cnn3c2)cn1 [Example 5, 6-(1-methyl-1H-pyrazol-4-yl)-4-(6-(4-(2-(pyridin-2-yl)acetyl)piperazin-1-yl)pyridin-3-yl)pyrazolo[1,5-a]pyridine-3-carbonitrile]
0.115	Cn1cc(-c2cc(-c3ccc(N4CCN(C(=O)C[C@@H](O)c5ccccc5)CC4)nc3)c3c(C#N)cnn3c2)cn1 [Example 7, (R)-4-(6-(4-(3-hydroxy-3-phenylpropanoyl)piperazin-1-yl)pyridin-3-yl)-6-(1-methyl-1H-pyrazol-4-yl)pyrazolo[1,5-a]pyridine-3-carbonitrile]
0.115	Cn1cc(-c2cc(-c3ccc(N4CCN(C(=O)[C@@H](O)c5ccccc5)CC4)nc3)c3c(C#N)cnn3c2)cn1 [Example 6, (S)-4-(6-(4-(2-hydroxy-2-phenylacetyl)piperazin-1-yl)pyridin-3-yl)-6-(1-methyl-1H-pyrazol-4-yl)pyrazolo[1,5-a]pyridine-3-carbonitrile]
0.0989	Cn1cc(-c2cc(-c3ccc(N4CCN(C(=O)C[C@H](O)c5ccccc5)CC4)nc3)c3c(C#N)cnn3c2)cn1 [Example 8, (S)-4-(6-(4-(3-hydroxy-3-phenylpropanoyl)piperazin-1-yl)pyridin-3-yl)-6-(1-methyl-1H-pyrazol-4-yl)pyrazolo[1,5-a]pyridine-3-carbonitrile]
0.0834	Cn1cc(-c2cc(-c3ccc(N4CCN(C(=O)C[C@H](NC(=O)OC(C)(C)C)c5ccccc5)CC4)nc3)c3c(C#N)cnn3c2)cn1 [Example 17, (S)-tert-butyl (3-(4-(5-(3-cyano-6-(1-methyl-1H-pyrazol-4-yl)pyrazolo[1,5-a]pyridin-4-yl)pyridin-2-yl)piperazin-1-yl)-3-oxo-1-phenylpropyl)carbamate]
0.0474	Cn1cc(-c2cc(-c3ccc(N4CCN(C(=O)C(O)c5ccccc5F)CC4)nc3)c3c(C#N)cnn3c2)cn1 (stereo not drawn) [Example 10, 4-(6-(4-(2-(2-fluorophenyl)-2-hydroxyacetyl)piperazin-1-yl)pyridin-3-yl)-6-(1-methyl-1H-pyrazol-4-yl)pyrazolo[1,5-a]pyridine-3-carbonitrile]
0.0327	Cn1cc(-c2cc(-c3ccc(N4CCN(C(=O)[C@H](O)Cc5ccccc5)CC4)nc3)c3c(C#N)cnn3c2)cn1 [Example 9, (R)-4-(6-(4-(2-hydroxy-3-phenylpropanoyl)piperazin-1-yl)pyridin-3-yl)-6-(1-methyl-1H-pyrazol-4-yl)pyrazolo[1,5-a]pyridine-3-carbonitrile]
